Where two headings read alike, the source gives them in different places.
Columns and labels:
[1] = Stability of AAs in rat plasma (QC samples, HPLC-MS/MS); type: in vitro ADME; settings: n = 5; for Short-term stability (RSD/%): fresh rat plasma at room temperature for 24 h before sample preparation; for Post-preparation stability (RSD/%): prepared rat plasma samples at room temperature for 24 h; for Long-term stability (RSD/%): rat plasma stored at –20 °C for 14 days; for Freeze-thaw stability (RSD/%): rat plasma, three freeze-thaw cycles (–20 °C 24 h, thawed at room temperature)
Procedure: The QC samples were assayed under several different conditions to evaluate the stability of AAs in rat plasma. The freeze-thaw stability of the analyte was determined over three freeze-thaw cycles. In each freeze-thaw cycle, the samples were frozen and stored at –20 °C for 24 h, then thawed at room temperature. To evaluate the long-term stability of AAs, the plasma samples were stored at –20 °C for 14 days. For the short-term stability, fresh plasma samples were kept at room temperature for 24 h before the sample preparation. After keeping the samples at room temperature for 24 h, post-preparation stability was tested. Stability was evaluated by comparing the mean concentration of the stored samples with the mean concentration of those prepared freshly. The stability data were acceptable when the bias was within ±15% of the actual value.

[2] = Multi-component pharmacokinetics of AAs in rats after oral administration of AF and HAF extracts (HPLC-MS/MS of plasma); design: species or system Sprague–Dawley (SD) rats; settings: Sprague-Dawley, rat, in vivo
Procedure: An aliquot (100 μl) of rat plasma was spiked with 10.0 μL IS, and vortexed with 300 μL acetic ether for 10 s before the supernatant was transferred into centrifuge tube. The extraction was repeated with 200 μL acetic ether. The combined organic layer was evaporated to dryness under a gentle stream of nitrogen at RT. The residue was resolved in 100 μL methanol and centrifuged at 15,800 × g for 10 min. The supernatant was used for HPLC-MS/MS analysis.
Chromatographic separation was performed by an Acquity C18 column (4.6 × 100 mm,3.5 μm) (Agilent Technologies, USA). The mobile phase was composed of water (containing 10 mM ammonium formate and formic acid, pH 3.0) (solvent A) and ACN (solvent B). The gradient profile of B was: 0–10 min, 35–38%; 10–11 min, 38– 60%; 11–17 min, 60–35%B; 17–18 min, 35%. The flow rate was kept at 0.5 mL/min. The column oven was set at 30 °C and the injection volume was 10 μL.
The mass spectrometer was operated in the positive ion electrospray mode with multiple reaction monitoring (MRM). The optimal MS parameters were set at the following parameters: a desolvation gas temperature of 450 °C, desolvation gas flow of 10 L/min, a nebulizer gas of 40 psi and a capillary voltage of 4000 V. The mass spectrometry conditions of AA I, AA II, AA C, AA D, 7-OH AA I and IS are summarized in Additional file 1: Table S1.
The rats were randomly divided into 6 groups (low, middle and high doses of AF and HAF; n = 6). After a week of acclimation, the animals were fasted for 12 h with free access to water. Then, AF and HAF extracts were administered to the rats. The extracts were suspended in 0.5% CMC–Na solution, and the oral doses (according to AA I in the extracts) were 3.0 mg/kg, 8.0 mg/kg and 15.0 mg/kg, respectively.
Blood samples were collected from the ocular vein using dried heparinized tubes at 0, 0.083, 0.17, 0.33, 0.50, 0.67, 0.83, 1, 2, 4, 6, 8, 10, 12 and 24 h from the start. The animals received fluid replacement (sterile isotonic saline) after every two samplings since the fifth collecting. The samples were then immediately centrifuged at 3100 × g for 10 min. The plasma obtained was frozen and stored at –20 °C until analysis.
All statistical analyses were performed using the SPSS 11.0 software (Chicago, USA). P values <0.05 were considered statistically significant. Pharmacokinetic analysis was performed using the proprietary DAS 3.0 software (Mathematical Pharmacology Professional Committee of China, Shanghai, China).
After the oral administration of AF and HAF extracts, rat plasma samples were prepared and analyzed as described above. Five main AAs can be detected in rat blood with the proposed HPLC-MS/MS method. The mean pharmacokinetic parameters of five AAs in AF and HAF are summarized in Tables 4, 5 and Additional files 5, 6, 7: Tables S4-S6. The maximum concentration (C max) was the experimentally-observed value. The other pharmacokinetic parameters of the five analytes were fitted by DAS 3.0 software.

[3] = high QC conc ng/mL: AA I 1830, AA II 3200, AA C 2980, AA D 3680, 7-OH AA I 3280
[4] = low QC conc ng/mL: AA I 1.83, AA II 8.00, AA C 186.3, AA D 36.8, 7-OH AA I 82.0
[5] = middle QC conc ng/mL: AA I 457.5, AA II 400, AA C 372.5, AA D 460, 7-OH AA I 410
[6] = 3 mg/kg, AF extract, low dose (3.0 mg/kg as AA I), analyte dose mg/kg: AA I 3.0, AA II 0.21, AA C 1.42, AA D 1.60, 7-OH AA I 2.33, n = 6
[7] = 3 mg/kg, HAF extract, low dose (3.0 mg/kg as AA I), analyte dose mg/kg: AA I 3.0, AA II 0.26, AA C 1.53, AA D 1.51, 7-OH AA I 2.48, n = 6
[8] = 8 mg/kg, AF extract, mid dose (8.0 mg/kg as AA I), analyte dose mg/kg: AA I 8.0, AA II 0.56, AA C 3.78, AA D 4.26, 7-OH AA I 6.22, n = 6
[9] = 8 mg/kg, HAF extract, mid dose (8.0 mg/kg as AA I), analyte dose mg/kg: AA I 8.0, AA II 0.69, AA C 4.09, AA D 4.03, 7-OH AA I 6.62, n = 6
[10] = 15 mg/kg, AF extract, high dose (15.0 mg/kg as AA I), analyte dose mg/kg: AA I 15.0, AA II 1.05, AA C 7.09, AA D 8.00, 7-OH AA I 11.66, n = 6
[11] = 15 mg/kg, HAF extract, high dose (15.0 mg/kg as AA I), analyte dose mg/kg: AA I 15.0, AA II 1.29, AA C 7.66, AA D 7.56, 7-OH AA I 12.41, n = 6

## COc1cc(O)cc2c1cc([N+](=O)[O-])c1c(C(=O)O)cc3c(c12)OCO3 [AA D]
[1]; [3]
  Short-term stability (RSD/%): 8.6%
  Post-preparation stability (RSD/%): 2.8%
  Long-term stability (RSD/%): 12.7%
  Freeze-thaw stability (RSD/%): 14.3%
[1]; [4]
  Short-term stability (RSD/%): 5.0%
  Post-preparation stability (RSD/%): 4.5%
  Long-term stability (RSD/%): 5.2%
  Freeze-thaw stability (RSD/%): 4.8%
[1]; [5]
  Short-term stability (RSD/%): 11.7%
  Post-preparation stability (RSD/%): 3.1%
  Long-term stability (RSD/%): 2.5%
  Freeze-thaw stability (RSD/%): 8.4%
[2]; [6]
  AUC(0-inf): 194 ng·h/mL
  Cmax: 78.5 ng/mL
  Tmax: 0.56 h
[2]; 3 mg/kg, AF extract, low dose (3.0 mg/kg as AA I), analyte dose mg/kg: AA I 3.0, AA II 0.21, AA C 1.42, AA D 1.60, 7-OH AA I 2.33, n = 6, read-out: CLz/F (converted)
  CL/F: 168 mL/min/kg
[2]; 3 mg/kg, AF extract, low dose (3.0 mg/kg as AA I), analyte dose mg/kg: AA I 3.0, AA II 0.21, AA C 1.42, AA D 1.60, 7-OH AA I 2.33, n = 6, read-out: Vz/F
  Vd/F: 35.7 L/kg
[2]; 3 mg/kg, AF extract, low dose (3.0 mg/kg as AA I), analyte dose mg/kg: AA I 3.0, AA II 0.21, AA C 1.42, AA D 1.60, 7-OH AA I 2.33, n = 6, read-out: t 1/2z (converted)
  half-life: 2.45 h
[2]; [7]
  AUC(0-inf): 179 ng·h/mL
  Cmax: 58.6 ng/mL
  Tmax: 0.78 h
[2]; 3 mg/kg, HAF extract, low dose (3.0 mg/kg as AA I), analyte dose mg/kg: AA I 3.0, AA II 0.26, AA C 1.53, AA D 1.51, 7-OH AA I 2.48, n = 6, read-out: CLz/F (converted)
  CL/F: 158 mL/min/kg
[2]; 3 mg/kg, HAF extract, low dose (3.0 mg/kg as AA I), analyte dose mg/kg: AA I 3.0, AA II 0.26, AA C 1.53, AA D 1.51, 7-OH AA I 2.48, n = 6, read-out: Vz/F
  Vd/F: 30.6 L/kg
[2]; 3 mg/kg, HAF extract, low dose (3.0 mg/kg as AA I), analyte dose mg/kg: AA I 3.0, AA II 0.26, AA C 1.53, AA D 1.51, 7-OH AA I 2.48, n = 6, read-out: t 1/2z (converted)
  half-life: 2.05 h
[2]; [8]
  AUC(0-inf): 402 ng·h/mL
  Cmax: 126 ng/mL
  Tmax: 0.56 h
[2]; 8 mg/kg, AF extract, mid dose (8.0 mg/kg as AA I), analyte dose mg/kg: AA I 8.0, AA II 0.56, AA C 3.78, AA D 4.26, 7-OH AA I 6.22, n = 6, read-out: CLz/F (converted)
  CL/F: 359 mL/min/kg
[2]; 8 mg/kg, AF extract, mid dose (8.0 mg/kg as AA I), analyte dose mg/kg: AA I 8.0, AA II 0.56, AA C 3.78, AA D 4.26, 7-OH AA I 6.22, n = 6, read-out: Vz/F
  Vd/F: 75.7 L/kg
[2]; 8 mg/kg, AF extract, mid dose (8.0 mg/kg as AA I), analyte dose mg/kg: AA I 8.0, AA II 0.56, AA C 3.78, AA D 4.26, 7-OH AA I 6.22, n = 6, read-out: t 1/2z (converted)
  half-life: 2.43 h
[2]; [9]
  AUC(0-inf): 323 ng·h/mL
  Cmax: 89.2 ng/mL
  Tmax: 0.75 h
[2]; 8 mg/kg, HAF extract, mid dose (8.0 mg/kg as AA I), analyte dose mg/kg: AA I 8.0, AA II 0.69, AA C 4.09, AA D 4.03, 7-OH AA I 6.62, n = 6, read-out: CLz/F (converted)
  CL/F: 190 mL/min/kg
[2]; 8 mg/kg, HAF extract, mid dose (8.0 mg/kg as AA I), analyte dose mg/kg: AA I 8.0, AA II 0.69, AA C 4.09, AA D 4.03, 7-OH AA I 6.62, n = 6, read-out: Vz/F
  Vd/F: 37.8 L/kg
[2]; 8 mg/kg, HAF extract, mid dose (8.0 mg/kg as AA I), analyte dose mg/kg: AA I 8.0, AA II 0.69, AA C 4.09, AA D 4.03, 7-OH AA I 6.62, n = 6, read-out: t 1/2z (converted)
  half-life: 2.3 h
[2]; [10]
  AUC(0-inf): 960 ng·h/mL
  Cmax: 155 ng/mL
  Tmax: 0.64 h
[2]; 15 mg/kg, AF extract, high dose (15.0 mg/kg as AA I), analyte dose mg/kg: AA I 15.0, AA II 1.05, AA C 7.09, AA D 8.00, 7-OH AA I 11.66, n = 6, read-out: CLz/F (converted)
  CL/F: 560 mL/min/kg
[2]; 15 mg/kg, AF extract, high dose (15.0 mg/kg as AA I), analyte dose mg/kg: AA I 15.0, AA II 1.05, AA C 7.09, AA D 8.00, 7-OH AA I 11.66, n = 6, read-out: Vz/F
  Vd/F: 153 L/kg
[2]; 15 mg/kg, AF extract, high dose (15.0 mg/kg as AA I), analyte dose mg/kg: AA I 15.0, AA II 1.05, AA C 7.09, AA D 8.00, 7-OH AA I 11.66, n = 6, read-out: t 1/2z (converted)
  half-life: 2.89 h
[2]; [11]
  AUC(0-inf): 590 ng·h/mL
  Cmax: 148 ng/mL
  Tmax: 0.63 h
[2]; 15 mg/kg, HAF extract, high dose (15.0 mg/kg as AA I), analyte dose mg/kg: AA I 15.0, AA II 1.29, AA C 7.66, AA D 7.56, 7-OH AA I 12.41, n = 6, read-out: CLz/F (converted)
  CL/F: 206 mL/min/kg
[2]; 15 mg/kg, HAF extract, high dose (15.0 mg/kg as AA I), analyte dose mg/kg: AA I 15.0, AA II 1.29, AA C 7.66, AA D 7.56, 7-OH AA I 12.41, n = 6, read-out: Vz/F
  Vd/F: 47.9 L/kg
[2]; 15 mg/kg, HAF extract, high dose (15.0 mg/kg as AA I), analyte dose mg/kg: AA I 15.0, AA II 1.29, AA C 7.66, AA D 7.56, 7-OH AA I 12.41, n = 6, read-out: t 1/2z (converted)
  half-life: 2.4 h

Source: paper PMC5303205, “Comparative studies on the multi-component pharmacokinetics of Aristolochiae Fructus and honey-fried Aristolochiae Fructus extracts after oral administration in rats” (BMC Complementary and Alternative Medicine, 2017)
